Results published in patent publication US6461997B1, “Triazole sulfones having herbicidal activity” (Monsanto Technology LLC, priority 1999, dated 2002).

Tests used:
[1] = system: CHEAL (common lambsquarters); experiment: Pre-emergence herbicidal activity, warm season; format: in vivo, Chenopodium album; details: GR80 = lowest tested rate (300, 100, 30, 10 g/ha) with 80% or greater inhibition; approx. 14 days after treating; 30/21° C.
Summary of the method: (§1)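 GR80 values derive from percent inhibition relative to untreated plants, read roughly 14 days after sowing and pre-emergence soil-surface treatment (compound in 50:50 acetone/water; rates typically 10, 30, 100, 300 g/ha). Warm-season weeds grew at 30/21° C day/night, cool-season ones at 18/13° C; an asterisk marks activity without reaching 80% at the highest rate.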

[2] = system: SINAR (wild mustard); experiment: Pre-emergence herbicidal activity, cool season; format: in vivo, Sinapis arvensis; details: lowest tested rate with 80% or greater inhibition; rates 300, 100, 30, 10 g/ha; about 14 days
Summary of the method: as §1

[3] = system: BRAPP (broadleaf signalgrass); experiment: Pre-emergence herbicidal activity, warm season; format: in vivo, Brachiaria platyphylla; details: GR80 = lowest tested rate (300, 100, 30, 10 g/ha) with 80% or greater inhibition; approx. 14 days after treating; 30/21° C.
Summary of the method: as §1

[4] = system: VERPE (creeping speedwell); experiment: Pre-emergence herbicidal activity, cool season; format: in vivo, Veronica persicaria; details: lowest tested rate with 80% or greater inhibition; rates 300, 100, 30, 10 g/ha; about 14 days
Summary of the method: as §1

[5] = system: POROL (common purslane); experiment: Pre-emergence herbicidal activity, warm season; format: in vivo, Portulaca oleracea; details: GR80 = lowest tested rate (300, 100, 30, 10 g/ha) with 80% or greater inhibition; approx. 14 days after treating; 30/21° C.
Summary of the method: as §1

[6] = system: CONAR (field bindweed); experiment: Pre-emergence herbicidal activity, warm season; format: in vivo, Convolvulus arvensis; details: GR80 = lowest tested rate (300, 100, 30, 10 g/ha) with 80% or greater inhibition; approx. 14 days after treating; 30/21° C.
Procedure: (§2) Tables 5 to 8 summarize results of tests conducted as described below to determine the pre-emergence herbicidal activity, in the form of a GR80 value, of illustrative compounds of this invention. […] Compounds of the invention were typically applied at rates of 300, 100, 30, and 10 g/ha. Where herbicidal activity was evident but 80% inhibition was not achieved at the highest rate tested, an asterisk (*) is shown in the following tables.
(§3) The pre-emergence tests were conducted by the following procedure. Topsoil was sieved to pass through a 1.27 cm screen. Fertilizer was added to the topsoil and the mixture was then sterilized by heating. The topsoil mixture was placed in a pot and compacted to a depth of 1.0 to 1.25 cm from the top of the pot. Seeds of each of several monocotyledonous and dicotyledonous annual plant species were placed on top of the soil. Additional soil was subsequently placed over the seeds to level-fill the pot. A known amount of each test compound dissolved or suspended in an appropriate organic solvent was diluted with a 50:50 mix of acetone and water and applied to the surface of the soil. After treatment the plants were placed in a greenhouse where they received 0.64 cm of overhead irrigation. All subsequent watering consisted of a light overhead mist and/or subirrigation as needed for germination and growth. Tables 5 and 6 below relate to warm season plant species which were placed after pre-emergence treatment in a greenhouse with a 30/21° C. day/night temperature regime. Tables 7 and 8 below relates to cool season plant species placed after pre-emergence treatment in a greenhouse or growth chamber with an 18/13° C. day/night temperature regime.
(§4) Approximately 14 days after planting and treating, the plants were observed and herbicidal efficacy recorded as percent inhibition by comparison with untreated plants.
(§5) The plant species usually regarded as weeds which were utilized in the tests are identified in the tables below according to the following legend, in which “d” indicates a dicotyledonous species and “m” a monocotyledonous species. All monocotyledonous species included in the tests herein are grasses.

[7] = system: SASKR (russian thistle); experiment: Pre-emergence herbicidal activity, cool season; format: in vivo, Salsola kali; details: lowest tested rate with 80% or greater inhibition; rates 300, 100, 30, 10 g/ha; about 14 days
Summary of the method: as §1

[8] = system: LAMPU (purple deadnettle); experiment: Pre-emergence herbicidal activity, cool season; format: in vivo, Lamium purpureum; details: lowest tested rate with 80% or greater inhibition; rates 300, 100, 30, 10 g/ha; about 14 days
Summary of the method: as §1

[9] = system: GALAP (catchweed bedstraw); experiment: Pre-emergence herbicidal activity, cool season; format: in vivo, Galium aparine; details: lowest tested rate with 80% or greater inhibition; rates 300, 100, 30, 10 g/ha; about 14 days
Summary of the method: as §1

[10] = system: POLCO (wild buckwheat); experiment: Pre-emergence herbicidal activity, cool season; format: in vivo, Polygonum convolvulus; details: lowest tested rate with 80% or greater inhibition; rates 300, 100, 30, 10 g/ha; about 14 days
Summary of the method: (§6)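 Under 18/13 °C (ALOMY, POLCO) or 30/21 °C (PANMI, DIGSA) day/night, pre-emergence soil-surface treatments at 300, 100, 30 and 10 g/ha were evaluated after roughly 14 days. GR80 reflects percent inhibition relative to untreated plants.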

[11] = system: STEME (common chickweed); experiment: Pre-emergence herbicidal activity, cool season; format: in vivo, Stellaria media; details: lowest tested rate with 80% or greater inhibition; rates 300, 100, 30, 10 g/ha; about 14 days
Summary of the method: as §1

[12] = system: AGSST (creeping bentgrass); experiment: Pre-emergence herbicidal activity, cool season; format: in vivo, Agrostis stolonifera; details: GR80 = lowest tested rate (300, 100, 30, 10 g/ha) with 80% or greater inhibition; approx. 14 days after treating; 18/13° C.
Summary of the method: as §1

[13] = system: SETVI (green foxtail); experiment: Pre-emergence herbicidal activity, cool season; format: in vivo, Setaria viridis; details: GR80 = lowest tested rate (300, 100, 30, 10 g/ha) with 80% or greater inhibition; approx. 14 days after treating; 18/13° C.
Summary of the method: as §1

[14] = system: AVEFA (wild oat); experiment: Pre-emergence herbicidal activity, cool season; format: in vivo, Avena fatua; details: GR80 = lowest tested rate (300, 100, 30, 10 g/ha) with 80% or greater inhibition; approx. 14 days after treating; 18/13° C.
Procedure: as §2, §3, §4, §5

[15] = system: BROTE (downy brome); experiment: Pre-emergence herbicidal activity, cool season; format: in vivo, Bromus tectorum; details: GR80 = lowest tested rate (300, 100, 30, 10 g/ha) with 80% or greater inhibition; approx. 14 days after treating; 18/13° C.
Procedure: as §2, §3, §4, §5

[16] = system: SETFA (giant foxtail); experiment: Pre-emergence herbicidal activity, warm season; format: in vivo, Setaria faberi; details: GR80 = lowest tested rate (300, 100, 30, 10 g/ha) with 80% or greater inhibition; approx. 14 days after treating; 30/21° C.
Summary of the method: as §1

[17] = system: PANDI (fall panicum); experiment: Pre-emergence herbicidal activity, warm season; format: in vivo, Panicum dichotomiflorum; details: GR80 = lowest tested rate (300, 100, 30, 10 g/ha) with 80% or greater inhibition; approx. 14 days after treating; 30/21° C.
Procedure: as §2, §3, §4, §5

[18] = system: SORHA (johnsongrass (seedling)); experiment: Pre-emergence herbicidal activity, warm season; format: in vivo, Sorghum halepense; details: GR80 = lowest tested rate (300, 100, 30, 10 g/ha) with 80% or greater inhibition; approx. 14 days after treating; 30/21° C.
Summary of the method: as §1

[19] = system: PANMI (wild proso millet); experiment: Pre-emergence herbicidal activity, warm season; format: in vivo, Panicum miliaceum; details: GR80 = lowest tested rate (300, 100, 30, 10 g/ha) with 80% or greater inhibition; approx. 14 days after treating; 30/21° C.
Summary of the method: as §6

[20] = system: ECHCG (barnyardgrass); experiment: Pre-emergence herbicidal activity, warm season; format: in vivo, Echinochloa crus-galli; details: GR80 = lowest tested rate (300, 100, 30, 10 g/ha) with 80% or greater inhibition; approx. 14 days after treating; 30/21° C.
Summary of the method: as §1

[21] = system: DIGSA (large crabgrass); experiment: Pre-emergence herbicidal activity, warm season; format: in vivo, Digitaria sanguinalis; details: GR80 = lowest tested rate (300, 100, 30, 10 g/ha) with 80% or greater inhibition; approx. 14 days after treating; 30/21° C.
Summary of the method: as §6

[22] = system: LOLMG (annual ryegrass); experiment: Pre-emergence herbicidal activity, cool season; format: in vivo, Lolium multiflorum; details: GR80 = lowest tested rate (300, 100, 30, 10 g/ha) with 80% or greater inhibition; approx. 14 days after treating; 18/13° C.
Procedure: as §2, §3, §4, §5

[23] = system: SOLNI (black nightshade); experiment: Pre-emergence herbicidal activity, warm season; format: in vivo, Solanum nigrum; details: GR80 = lowest tested rate (300, 100, 30, 10 g/ha) with 80% or greater inhibition; approx. 14 days after treating; 30/21° C.
Summary of the method: as §1

[24] = system: ABUTH (velvetleaf); experiment: Pre-emergence herbicidal activity, warm season; format: in vivo, Abutilon theophrasti; details: GR80 = lowest tested rate (300, 100, 30, 10 g/ha) with 80% or greater inhibition; approx. 14 days after treating; 30/21° C.
Procedure: as §2, §3, §4, §5

[25] = system: AMARE (redroot pigweed); experiment: Pre-emergence herbicidal activity, warm season; format: in vivo, Amaranthus retroflexus; details: GR80 = lowest tested rate (300, 100, 30, 10 g/ha) with 80% or greater inhibition; approx. 14 days after treating; 30/21° C.
Procedure: as §2, §3, §4, §5

[26] = system: ALOMY (blackgrass); experiment: Pre-emergence herbicidal activity, cool season; format: in vivo, Alopecurus myosuroides; details: GR80 = lowest tested rate (300, 100, 30, 10 g/ha) with 80% or greater inhibition; approx. 14 days after treating; 18/13° C.
Summary of the method: as §6

[27] = system: CIRAR (canada thistle (seedling)); experiment: Pre-emergence herbicidal activity, warm season; format: in vivo, Cirsium arvense; details: GR80 = lowest tested rate (300, 100, 30, 10 g/ha) with 80% or greater inhibition; approx. 14 days after treating; 30/21° C.
Summary of the method: as §1

Structure (SMILES) | Pre-emergence activity (GR80) CHEAL [1] [g/ha] | Pre-emergence activity GR80, SINAR [2] | Pre-emergence activity (GR80) BRAPP [3] [g/ha] | Pre-emergence activity GR80, VERPE [4] | Pre-emergence activity (GR80) POROL [5] [g/ha] | Pre-emergence activity GR80, SASKR [7] | Pre-emergence activity GR80, LAMPU [8] | Pre-emergence activity GR80, GALAP [9] | Pre-emergence activity GR80, POLCO [10] | Pre-emergence activity GR80, STEME [11] | Pre-emergence activity (GR80) AGSST [12] [g/ha] | Pre-emergence activity (GR80) SETVI [13] [g/ha] | Pre-emergence activity (GR80) AVEFA [14] [g/ha] | Pre-emergence activity (GR80) SETFA [16] [g/ha] | Pre-emergence activity (GR80) SORHA [18] [g/ha] | Pre-emergence activity (GR80) PANMI [19] [g/ha] | Pre-emergence activity (GR80) ECHCG [20] [g/ha] | also measured
O=C(N1CCCC1)n1cnc(S(=O)(=O)C(F)F)n1 [Example 24] | 300 | [empty] | 100 | [empty] | 100 | [empty] | [empty] | [empty] | [empty] | [empty] |  |  |  |  |  |  |  | Pre-emergence activity (GR80) CONAR [6]: 300 g/ha
CN(C)C(=O)n1cnc(S(=O)(=O)C(F)F)n1 [Example 26] |  | [empty] |  | 300 g/ha |  | 300 g/ha | 300 g/ha | 300 g/ha | 300 g/ha | [empty] | 30 | 300 | 300 |  |  |  |  | 
COCCN(C)C(=O)n1cnc(S(=O)(=O)C(F)(F)Br)n1 [Example 40] |  | 100 g/ha |  | 100 g/ha |  | 300 g/ha | [empty] | [empty] | [empty] | 300 g/ha | 30 |  |  | 300 | 300 | 300 | 300 | Pre-emergence activity (GR80) BROTE [15]: 100 g/ha; Pre-emergence activity (GR80) PANDI [17]: 300 g/ha
CCCN(CC)C(=O)n1cnc(S(=O)(=O)C(F)(F)C(F)F)n1 [Example 63] | 100 | 30 g/ha | 300 | 30 g/ha | 300 | 30 g/ha | 30 g/ha | 30 g/ha | 300 g/ha | 30 g/ha | 10 | 100 | 300 | 100 | 100 | 100 | 100 | Pre-emergence activity (GR80) DIGSA [21]: 300 g/ha; Pre-emergence activity (GR80) LOLMG [22]: 100 g/ha; Pre-emergence activity (GR80) SOLNI [23]: 300 g/ha; Pre-emergence activity (GR80) ABUTH [24]: 300 g/ha; Pre-emergence activity (GR80) AMARE [25]: 100 g/ha; Pre-emergence activity (GR80) ALOMY [26]: 300 g/ha; Pre-emergence activity (GR80) CIRAR [27]: 300 g/ha
